The source of these data is patent publication US20020048271A1, “Methods and composition for restoring conformational stability of a protein of the p53 family” (priority 1998, published 2002).

For one assay, the system named is mutant p53 (position 173 or position 249) in Saos-2 cells. As to the kind of experiment: WAF1 and p53 expression, Western blot, Saos-2 cells with transfected mutant p53. The class given is cell-based. The note with it: position 173 or 249 mutant; Compound X for 16 hours.
Procedure: WAF1 and p53 Expression. […] Protein concentrations were determined using Bradford reagent (BioRad) and 5 or 10 ug of cell lysate were loaded onto 8-16 percent gradient polyacrylamide/SDS gels (Novex). […] The blots were washed for one hour in three changes of Tris buffered saline with 0.1 percent Tween 20, before the addition of the secondary antibody, HRP-conjugated anti-mouse IgG. The bands were visualized using Renaissance ECL (DuPont) and exposure to Hyperfilm ECL (Amersham Life Science).
As to `COc1cccc2c1C(=O)c1c(O)c3c(c(O)c1C2=O)C[C@@](O)(C(=O)CO)C[C@@H]3O[C@H]1C[C@H](N)[C@H](O)[C@H](C)O1` [Adriamycin], the “WAF1 expression in Saos-2 cells with mutant p53” value is reported as “did not induce WAF-1 expression”.

The test system of another assay is mutant mouse p53.
Assay: not given
The note with it: Brown et al., 1997; cited from earlier work.
Consider `OCC(O)CO` [Glycerol], for which the “Concentration restoring nuclear localization of mutant mouse p53” value is recorded as 600 mM.

For the next assay, the target named is T1, wild-type p53 DBD (Homo sapiens, UniProt P04637).
T1 construct: Recombinant DBD (residues 94-312) from wild-tvpe and mutant p53 proteins; made in house
T1 sequence (P04637 94-312): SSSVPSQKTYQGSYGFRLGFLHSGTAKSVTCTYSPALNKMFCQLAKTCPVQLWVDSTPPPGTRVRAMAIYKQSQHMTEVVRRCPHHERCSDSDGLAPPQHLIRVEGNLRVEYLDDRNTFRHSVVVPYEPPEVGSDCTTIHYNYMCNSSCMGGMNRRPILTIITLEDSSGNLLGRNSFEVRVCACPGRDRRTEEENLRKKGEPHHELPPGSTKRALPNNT
Put plainly: p53 DBD thermostabilization assay (ELISA for mAb1620 epitope). The settings on record: 0.5 ng of p53 DBD heated at 45° C. for 30 minutes; read-out: SC50: concentration of compound required to preserve 50% of the epitope for mAb 1620. The class given is biochemical. The protocol: Thermostabilization Assay. Recombinant DBD (residues 94-312) from wild-tvpe and mutant p53 proteins and FLAG-tagged p53 DBD were prepared as described (Pavletich et al., 1993, Genes and Dev. 7, 2556-2564; Bullock et al., 1997, supra.). Mutant proteins used were 143A, 173A, 175S. 249S, and 273H. A number of small molecule organic compounds were tested. Compound stocks were dissolved in DMSO at 10 mg/ml and diluted prior to use. The proteins (0.25-1.0 ng/well) were diluted in a buffer containing 25 mM HEPES, pH 6.8, 150 mM KCl, 10 mM dithiothreitol and attached in 50 ul to Reacti-Bind microtiter plates (Pierce) for 35 minutes on ice. The wells were rinsed with 25 mM HEPES, pH 6.8, 150 mM KCl, compound or diluted DMSO vehicle added, and the plates incubated at the indicated temperatures. Incubation was terminated by placing the wells on ice; ELISA assays performed while maintaining the plates on ice in order to avoid further alterations of the epitopes. Wells were blocked for 1 hour with cold 5 percent skim milk (Difco) in HEPES/KCl buffer prior to addition of the primary antibodies. Monoclonal antibodies mAb1620, mAb240 (Calbiochem) and anti-FLAG M2 antibody (Eastman Kodak Company) were diluted at 1:100-1:250 in HEPES/KCl and added at 100 ul/well for 30 minutes. The plates were rinsed twice with cold HEPES/KCl buffer and incubated with horseradish peroxidase (HRP)-conjugated anti-mouse IgG (Boehringer Mannheim) for another 30 minutes. The HRP signal was developed using TMB developer (Pierce) and the optical density of the signal was read on a BioRad microplate reader set at 450 nm.
On to `C(=C\c1nc(N2CCOCC2)c2ccccc2n1)/c1ccccc1` [Compound 1B], for which the EC50 was above 300 µM.

Consider `c1ccc2c(NCCCN3CCOCC3)c3cccnc3cc2c1` [Compound 2A], for which the EC50 amounted to 120 µM.

`c1ccc2c(NCCN3CCOCC3)c3cccnc3cc2c1` [Compound 2B]: the EC50 was above 300 µM.

Consider `CCN(CC)CCCNc1c2ccccc2cc2ncccc12` [Compound 3A], for which the EC50 worked out at 50 µM.

Regarding `CN(C)CCCN1c2ccccc2Sc2ccccc21` [Compound 4B], the EC50 is above 300 µM.

Consider `CCN(CC)CCCCNc1c2ccccc2cc2ncccc12` [Compound 3B], for which the EC50 was found to be 120 µM.

Regarding `C(=C\c1nc(NCCCN2CCOCC2)c2ccccc2n1)/c1ccccc1` [Compound 1A], the EC50 stood at 36 µM.

Regarding `CC(CN(C)C)CN1c2ccccc2Sc2ccccc21` (stereo not shown) [Compound 4A], the EC50 was 38 µM.
